Assay results: patent US11980616B2, “Treating liver disease by selectively eliminating senescent cells” (Buck Institute for Research on Aging, priority 2014, dated 2024)

What was measured:
[1] = tested on: senescent IMR90 cells; assay: CellTiter-Glo cell viability assay, senescent IMR90; assay type: cell-based, human
Procedure: (§1) To determine whether ABT-263 is selectively toxic to senescent cells compared to non-senescent cells, a cell viability assay was used to assess cell survival following treatment with ABT-263. IMR90 cells (human primary lung fibroblasts (IMR90) (IMR-90 (ATCC® CCL-186™, Manassas, Virginia) were seeded in six well plates, and cells were induced to senescence with 10 Gy of ionizing radiation (IR) (Day 0). The media was refreshed every 3 days. The senescent phenotype is allowed to develop for 7 days at which point a cell count was made to determine the baseline number of cells followed by seeding into 96-well plates. On day 8, the senescent cells (irradiated) and the non-senescent cells (the non-radiated cells), were exposed to serial dilutions of ABT-263 for a period of 3 days. ABT-263 concentrations ranged from 0.5 nM to 3 μM. Each condition was seeded in triplicate.
(§2) After three days of treatment (Day 11), cells were assayed for cell survival using the commercially available CellTiter-Glo® (CTG) Luminescent Cell Viability Assay (Promega Corporation, Madison, Wisconsin). The assay determines the number of viable cells in culture based on the quantitation of ATP present which is an indicator of metabolically active cells.
The experiments performed for assessing the effect of these other Bcl-2 inhibitors were performed essentially as described in Example 7. Cells were exposed to ABT-199 at serial dilution concentrations ranging from 15 nM to 100 μM (FIGS. 26 and 27). Cells were exposed to Obatoclax at concentrations ranging from 1.4 nM to 9 μM (FIG. 28).
IMR90 cells were induced to senescence by irradiation as described in Example 7. The irradiated IMR90 cells and non-senescent IMR90 cells were then exposed to a compound called ML214 that is a Bcl-2A1 specific inhibitor.
The effect of ABT-263 in combination with the Akt inhibitor MK-2206 was tested for selective toxicity of senescent cells compared to non-senescent cells in IMR90 cells. The methods of Example 7 were repeated except that cell cultures were exposed to 10 nM MK-2206 (Selleckem, Cat #S1078) in addition to serial dilutions of ABT-263.

[2] = tested on: 3MR or INK-ATTAC mice exposed to cigarette smoke; assay: Chronic cigarette smoke exposure model (COPD); assay type: in vivo, mouse; settings: after 2 months of cigarette smoke exposure; vs untreated controls
Procedure: In a second animal model for pulmonary diseases (e.g., COPD), mice were exposed to cigarette smoke. The effect of a senolytic agent on the mice exposed to smoke is assessed by senescent cell clearance, lung function, and histopathology.
Six week-old 3MR (n=35) or INK-ATTAC (n=35) mice were chronically exposed to cigarette smoke generated from a Teague TE-10 system, an automatically-controlled cigarette smoking machine that produces a combination of side-stream and mainstream cigarette smoke in a chamber, which is transported to a collecting and mixing chamber where varying amounts of air is mixed with the smoke mixture. The COPD protocol was adapted from the COPD core facility at Johns Hopkins University (at Internet site web.jhu.edu/Biswal/exposure_core/copd.html#Cigarette_Smoke) (Rangasamy et al., 2004, J. Clin. Invest. 114:1248-1259; Yao et al., 2012, J. Clin. Invest. 122:2032-2045). Mice received a total of 6 hours of cigarette smoke exposure per day, 5 days a week for 6 months. Each lighted cigarette (3R4F research cigarettes containing 10.9 mg of total particulate matter (TPM), 9.4 mg of tar, and 0.726 mg of nicotine, and 11.9 mg carbon monoxide per cigarette [University of Kentucky, Lexington, KY]) was puffed for 2 seconds and once every minute for a total of 8 puffs, with the flow rate of 1.05 L/min, to provide a standard puff of 35 cm^3. The smoke machine was adjusted to produce a mixture of side stream smoke (89%) and mainstream smoke (11%) by smoldering 2 cigarettes at one time. The smoke chamber atmosphere was monitored for total suspended particulates (80-120 mg/m^3) and carbon monoxide (350 ppm). Beginning at day 7, (10) INK-ATTAC and (10) 3MR mice were treated with AP20187 (3× per week) or gancyclovir (5 consecutive days of treatment followed by 16 days off drug, repeated until the end of the experiment), respectively. An equal number of mice received the corresponding vehicle. The remaining […] (15 INK-ATTAC and 15 3MR) were evenly split with 5 of each genetically modified strain placed into three different treatment groups. One group (n=10) received Nutlin-3A (25 mg/kg dissolved in 10% DMSO/3% Tween-20 in PBS, treated 14 days consecutively followed by 14 days off drug, repeated until the end of the experiment). […]
After two months of cigarette smoke exposure, lung function was assessed by monitoring oxygen saturation using the MouseSTAT PhysioSuite pulse oximeter (Kent Scientific). […] Mice were monitored for 30 seconds and the average peripheral capillary oxygen saturation (SpO2) measurement over this duration was calculated.

[3] = tested on: INK-ATTAC transgenic mice; assay: Cardiac stress test (isoproterenol) in aged INK-ATTAC transgenic mice; assay type: in vivo, mouse
Procedure: To study the impact of senescent cell clearance on health and lifespan, cohorts of INK-ATTAC transgenic mice on FVB×129Sv/E×C57BL/6 mixed or C57BL/6 pure genetic backgrounds were established. At 12 months age, one half of each cohort was injected three times/week with AP20187 to induce apoptosis of p16-positive senescent cells (0.2 mg/kg and 2 mg/kg AP20187 for the mixed and the pure C57BL/6 cohorts, respectively), while the other half of each cohort received vehicle. At 18 months, subsets of male and female mice from each cohort were subjected to a cardiac stress test, in which mice were injected with a lethal dose of isoproterenol (680 mg/kg) and the time to cardiac arrest was recorded.
Cardio-protective signaling pathways are known to provide tolerance to metabolic stresses such as ischemia and hypoxia decline (Granfeldt et al., 2009, Cardiovasc. Res. 83:234-246). However, cardio-protective signaling deteriorates with aging, thus decreasing the functional and adaptive reserve capacity of the heart (Ogawa et al., 1992, Circulation 86:494-503; Wiebe et al., 1998, Clin. J. Sport Med. 8:272-279). ATP-dependent K channels (KATP) play a central role in cardio-protective signaling (Gross and Auchampach, 1992, Cardiovasc. Res. 26:1011-1016). These KATP channels are composed of the pore-forming subunit Kir6.2/Kir6.1, the regulatory subunit Sur2a, and additional accessory proteins. KATP channels are thought to decline with aging due to decreased expression of Sur2a (Du et al., 2006, FASEB J. 20:1131-1141; Jovanovic and Jovanovic, 2009, Curr. Opin. Pharmacol. 9:189-193; Ranki et al., 2002, Mech. Ageing Dev. 123:695-705). […] Thus, the contribution of senescent cells to the age-related decline in Sur2a expression was examined in 18 month old AP20187-treated and vehicle treated mice from subjected to the cardiac stress test previously described. […] Taken together, these experiments indicate that the presence of senescent cells with aging negatively impacts KATP channel function, and senescent cell clearance is an effective therapy to counteract this deterioration.

[4] = tested on: non-senescent IMR90 cells; assay: CellTiter-Glo cell viability assay, non-senescent IMR90; assay type: cell-based; settings: Homo sapiens, IMR-90, 72 h; non-senescent IMR90, 3 days
Procedure: as §1, §2
The experiments performed for assessing the effect of these other Bcl-2 inhibitors were performed essentially as described in Example 7. […]

[5] = tested on: myocardial damage in patients; settings: drug product inserts; cited from earlier work
[6] = tested on: p16-3MR animals; assay: Senescence induced by chemotherapeutic drugs in p16-3MR animals (luminescence); assay type: in vivo, mouse; settings: p<0.05; pomalidomide 5 mg/kg, lenalidomide 50 mg/kg 7 daily injections; doxorubicin 10 mg/kg 2-4 injections
Procedure: To examine senescence induced by different chemotherapeutic drugs, groups of p16-3MR animals (n=4) were treated with thalidomide (100 mg/kg; 7 daily injections); romidepsin (1 mg/kg; 3 injections); pomalidomide (5 mg/kg; 7 daily injections); lenalidomide (50 mg/kg; 7 daily injections); 5-azacytidine (5 mg/kg; 3 injections) and compared with doxorubicin (10 mg/kg, 2-4 injections over 7 days).

[7] = tested on: p16-3MR transgenic mice; assay: Paclitaxel-induced senescence in p16-3MR mice; assay type: in vivo, mouse; settings: 20 mg/kg three times every two days
Procedure: Paclitaxel induces senescence and SASP in p16-3MR transgenic mice. Groups of mice (n=4) were treated three times every two days with 20 mg/kg paclitaxel or vehicle. […] The level of mRNA in skin was determined for each of the target genes: p16, 3MR transgene, and IL-6.

## CC1(C)CCC(CN2CCN(c3ccc(C(=O)NS(=O)(=O)c4ccc(NCC5CCOCC5)c([N+](=O)[O-])c4)c(Oc4cnc5[nH]ccc5c4)c3)CC2)=C(c2ccc(Cl)cc2)C1 [ABT-199]
[1]; IMR90
  Selective targeting (killing) of senescent cells over non-senescent cells: inability

## CC[C@H](C(=O)N1CCCC[C@H]1C(=O)O[C@H](CCc1ccc(OC)c(OC)c1)c1cccc(OCC(=O)NCC(CNC(=O)COc2cccc([C@@H](CCc3ccc(OC)c(OC)c3)OC(=O)[C@@H]3CCCCN3C(=O)[C@@H](CC)c3cc(OC)c(OC)c(OC)c3)c2)CN(C)C)c1)c1cc(OC)c(OC)c(OC)c1 [AP20187]
[2]
  SpO2 levels: statistically significant increases
[3]; 0.2 or 2 mg/kg three times/week from 12 to 18 months, isoproterenol 680 mg/kg
  Time to cardiac arrest after lethal isoproterenol: sustained youthful cardio-protection
[3]; 18-month-old female mice
  Sur2a expression: sustained Sur2a expression
[3]; INK-ATTAC mice
  Median lifespan: median lifespan extension

## COC1=CC(c2cc3ccccc3[nH]2)=N/C1=C\c1[nH]c(C)cc1C [Obatoclax]
[4]
  IC50: 75 nM
[1]; Homo sapiens, IMR-90, 72 h, senescent IMR90, 3 days
  IC50: 125 nM

## COc1cccc2c1C(=O)c1c(O)c3c(c(O)c1C2=O)C[C@@](O)(C(=O)CO)C[C@@H]3O[C@H]1C[C@H](N)[C@H](O)[C@H](C)O1 [doxorubicin]
[5]
  Total lifetime dose above which myocardial damage may lead to congestive heart failure: exceeds 550 mg/m^2
[6]
  Level of senescent cells (luminescence): significant levels of senescent cells

## Nc1cccc2c1CN(C1CCC(=O)NC1=O)C2=O (stereo not drawn) [lenalidomide]
[6]
  Level of senescent cells (luminescence): significant levels of senescent cells

## Nc1cccc2c1C(=O)N(C1CCC(=O)NC1=O)C2=O (stereo not drawn) [omalidomide]
[6]
  Level of senescent cells (luminescence): significant levels of senescent cells

## CC(=O)O[C@H]1C(=O)[C@@]2(C)[C@H]([C@H](OC(=O)c3ccccc3)[C@]3(O)C[C@H](OC(=O)[C@H](O)[C@@H](NC(=O)c4ccccc4)c4ccccc4)C(C)=C1C3(C)C)[C@]1(OC(C)=O)CO[C@@H]1C[C@@H]2O [paclitaxel]
[7]
  Senescence shown by luminescence: Senescence was observed
[7]; vs vehicle
  3MR transgene mRNA in skin: increased
  IL-6 mRNA in skin: increased
  p16 mRNA in skin: increased
